{"source": "patent US10905651B1", "about": "“Zeinmersome nanocarriers for drug delivery to the liver” (King Abdulaziz University, priority 2020, dated 2021)", "key": {"[1]": {"test": "In vitro diffusion studies (Franz diffusion cell)", "type": "physicochemical", "details": "within a 4-hour time period; 0.1 μm nylon membrane, buffer pH 7.0 with Tween 20 0.5% w/v", "procedure": "The formula characterization was assessed by examining its diffusion pattern. An automated Franz diffusion cell apparatus (MicroettePlus; Hanson Research, Chatsworth, Calif., US) with a diffusion area of 1.76 cm^2 was utilized to examine the diffusion of OM from the prepared formula as described previously (Ahmed et al., 2019. Internat J Pharmaceu 570: 118657). A 0.1 μm nylon diffusion membrane and a buffer (pH 7.0) containing Tween 20 (0.5% w/v) were used, and this was stirred at 400 rpm. The aliquots were analyzed for OM concentration by HPLC as previously reported. The samples were collected at 0.5, 1, 2, 4, 8, 12, 24 and 48 h."}, "[2]": {"test_system": "TAA-induced hepatic fibrosis rats", "test": "Histopathology of hepatic sections in TAA-induced hepatic fibrosis rats", "type": "in vivo, rat", "details": "two months, H&E", "procedure": "(§1) Rats were given freshly prepared TAA (0.9% w/v in saline solution, 200 mg/kg, ip) twice weekly for eight weeks. A normal control (NC) group of rats (n=8) received injections of the vehicle twice weekly for eight weeks. The TAA-treated rats were randomly assigned to groups (n=8), including a test group for each dosage of a free drug (not encapsulated in ZMS), each dosage of zeinmersomes encapsulating the drug, and a positive control group (PC) having hepatic fibrosis but receiving a vehicle-only treatment instead of a drug treatment. Five groups of rats (n=8) were given freshly prepared TAA (0.9% w/v in saline solution, 200 mg/kg, ip) twice weekly for eight weeks and a normal control (NC) group received vehicle injections, as described in Example 4. The five TAA groups included a positive control group (PC, untreated) and four groups treated with low and high doses (2 and 4 mg/kg/day) of OM as raw drug (OL & OH, respectively) and the same low and high doses (2 and 4 mg/kg/day) of OM formulated as zeinmersomes (OLZMS & OHZMS, respectively). […] The plasma levels of ALT and AST and the homogenate levels of IL-6, reduced glutathione (GSH), TNF-α, malondialdehyde (MDA), and protein content were measured using ELISA kits (MyBioSource, Inc. CA, USA). In addition, the concentrations of olmesartan in plasma and liver homogenate were measured by HPLC/MS. […]"}, "[3]": {"biological_target": "T1, AT1 receptor (Homo sapiens, UniProt P30556)", "T1 sequence (P30556 1-359)": "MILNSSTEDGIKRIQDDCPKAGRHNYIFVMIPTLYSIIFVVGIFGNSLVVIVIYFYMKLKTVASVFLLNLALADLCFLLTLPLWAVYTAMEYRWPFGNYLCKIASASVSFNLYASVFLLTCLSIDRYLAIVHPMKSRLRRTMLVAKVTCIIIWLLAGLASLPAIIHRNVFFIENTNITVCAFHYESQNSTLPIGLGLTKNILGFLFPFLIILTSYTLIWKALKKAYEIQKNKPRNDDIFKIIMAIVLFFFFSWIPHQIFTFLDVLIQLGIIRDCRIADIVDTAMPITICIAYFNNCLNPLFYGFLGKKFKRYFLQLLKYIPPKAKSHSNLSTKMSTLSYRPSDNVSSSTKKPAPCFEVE", "details": "cited from earlier work"}, "[4]": {"details": "cited from earlier work"}, "[5]": {"test_system": "AT4 receptors", "details": "cited from earlier work"}, "[6]": {"test_system": "TAA-induced hepatic fibrosis rats", "test": "Histopathology of duodenal sections and detection of sprue-like enteropathy in TAA-induced hepatic fibrosis rats", "type": "in vivo, rat", "details": "two months", "procedure": "as §1"}}, "data": [{"smiles": "CCCc1nc(C(C)(C)O)c(C(=O)OCc2oc(=O)oc2C)n1Cc1ccc(-c2ccccc2-c2nnn[nH]2)cc1", "note": "[OM, (5-methyl-2-oxo-1,3-dioxol-4-yl)methyl 5-(2-hydroxypropan-2-yl)-2-propyl-3-[[4-[2-(2H-tetrazol-5-yl)phenyl]phenyl]methyl]imidazole-4-carboxylate]", "values": [{"measurement": "diffusion of OM (percentage permeated)", "setting": "[1]", "result": "~97.5±13.07", "unit": "%"}, {"measurement": "liver histopathology (fibrosis, inflammatory infiltration, hepatocytic degeneration)", "setting": "[2]; high dose 4 mg/kg/day oral", "result": "mild improvement"}, {"measurement": "liver histopathology (fibrosis, inflammatory infiltration, hepatocytic degeneration)", "setting": "[2]; low dose 2 mg/kg/day oral", "result": "no improvement"}, {"measurement": "AT1 receptor blockade", "setting": "[3]", "result": "competitive and selective AT1 receptor blocker"}, {"measurement": "drug accumulation", "setting": "[4]; OM once daily for 10 days", "result": "did not result in drug accumulation"}, {"measurement": "dose at which safe and well tolerated", "setting": "[4]; Schwocho et al. 2001", "result": "up to 160 mg/day"}, {"measurement": "time for plasma olmesartan to approach steady state", "setting": "[4]; treatment with OM", "result": 5, "unit": "days"}, {"measurement": "antagonistic effects on the AT4 receptors", "setting": "[5]", "result": "almost no antagonistic effects"}, {"measurement": "duodenal histopathology (TAA-induced duodenal changes)", "setting": "[6]; high dose 4 mg/kg/day oral", "result": "mild improvement"}, {"measurement": "duodenal histopathology (TAA-induced duodenal changes)", "setting": "[6]; low dose 2 mg/kg/day oral", "result": "swollen distorted villi with damaged desquamated surface epithelium"}]}]}
